Assay [1] relates to Candida albicans. The assay can be described thus: Antifungal activity against Candida albicans ATCC 11006 in YNB broth containing 2% glucose as sole carbon source after 72 hrs by broth dilution assay. In kind it is functional. Conditions: ATCC 11006, 72 h. (In general: Dilution methods test growth across graded concentrations, often in twofold steps.)
In assay [2] the test system is Candida albicans. The assay can be described thus: Antifungal activity against Candida albicans MRC10 (deltaicl) in YNB broth containing 2% potassium acetate as sole carbon source at 3.12 ug/mL after 72 hrs by broth dilution assay. In kind it is functional, organism-based.
For assay [3], the system named is Candida albicans. The assay can be described thus: Antifungal activity against Candida albicans ATCC 10259 in YNB broth containing 2% glucose as sole carbon source after 72 hrs by broth dilution assay. In kind it is functional. Conditions: ATCC 10259, 72 h.
The subject of assay [4] is Candida albicans. Kind of assay: Antifungal activity against Candida albicans SC5314 in YNB broth containing 2% glucose as sole carbon source after 72 hrs by broth dilution assay. In kind it is functional. Conditions: SC5314, 72 h.
Assay [5] relates to Candida albicans. Kind of assay: Inhibition of ICL mRNA expression in Candida albicans MRC10 (deltaicl) in YNB broth containing 2% potassium acetate as sole carbon source at 3.12 ug/mL after 48 hrs by real time RT-PCR method. In kind it is functional, organism-based. On the technique in general: Real-time PCR tracks product formation cycle by cycle.
The subject of assay [6] is Candida albicans. Kind of assay: Antifungal activity against Candida albicans ATCC 10259 in YNB broth containing 2% potassium acetate as sole carbon source after 72 hrs by broth dilution assay. In kind it is functional. The conditions noted are these: ATCC 10259, 72 h.
The subject of assay [7] is Candida albicans. The assay can be described thus: Antifungal activity against Candida albicans SC5314 in YNB broth containing 2% glucose as sole carbon source at 3.12 ug/mL after 72 hrs by broth dilution assay. In kind it is functional, organism-based.
Assay [8] concerns Candida albicans. The assay can be described thus: Antifungal activity against Candida albicans ATCC 10231 in YNB broth containing 2% potassium acetate as sole carbon source after 72 hrs by broth dilution assay. In kind it is functional. Conditions: ATCC 10231, 72 h.
Assay [9] relates to Candida albicans. The assay can be described thus: Antifungal activity against Candida albicans Candida albicans MRC11 (deltaicl + ICL) in YNB broth containing 2% potassium acetate as sole carbon source at 3.12 ug/mL after 72 hrs by broth dilution assay. In kind it is functional, organism-based.
Assay [10] relates to Candida albicans. Kind of assay: Inhibition of ICL mRNA expression in Candida albicans SC5314 in YNB broth containing 2% potassium acetate as sole carbon source at 3.12 ug/mL after 48 hrs by real time RT-PCR method. In kind it is functional.
Assay [11] deals with Candida albicans. The assay can be described thus: Inhibition of ICL mRNA expression in Candida albicans MRC11 (deltaicl + ICL) in YNB broth containing 2% potassium acetate as sole carbon source at 3.12 ug/mL after 48 hrs by real time RT-PCR method. In kind it is functional, organism-based.
For assay [12], the system named is Candida albicans. The assay can be described thus: Antifungal activity against Candida albicans ATCC 11006 in YNB broth containing 2% potassium acetate as sole carbon source after 72 hrs by broth dilution assay. In kind it is functional. The conditions noted are these: ATCC 11006, 72 h.
In assay [13] the test system is Candida albicans. The assay can be described thus: Antifungal activity against Candida albicans ATCC 10231 in YNB broth containing 2% glucose as sole carbon source after 72 hrs by broth dilution assay. In kind it is functional. Conditions: ATCC 10231, 72 h.
Assay [14] relates to Candida albicans. Kind of assay: Antifungal activity against Candida albicans ATCC 18804 in YNB broth containing 2% potassium acetate as sole carbon source after 72 hrs by broth dilution assay. Conditions: ATCC 18804, 72 h. In kind it is functional.
Assay [15] relates to Candida albicans. Kind of assay: Antifungal activity against Candida albicans SC5314 in YNB broth containing 2% potassium acetate as sole carbon source after 72 hrs by broth dilution assay. In kind it is functional. Conditions: SC5314, 72 h.
Another assay addresses Isocitrate lyase (Candida albicans, UniProt Q9P8Q7). Kind of assay: Inhibition of Candida albicans ATCC 10231 isocitrate lyase.
Assay [16] deals with Candida albicans. The assay can be described thus: Antifungal activity against Candida albicans ATCC 18804 in YNB broth containing 2% glucose as sole carbon source after 72 hrs by broth dilution assay. In kind it is functional. The conditions noted are these: ATCC 18804, 72 h.

Molecules are shown by their SMILES. Values after ≈ are worked out from the molar mass of the structure shown. Active and inactive are the calls of the source. The rule behind the calls is not given here.

Isocitrate lyase, sequence (Q9P8Q7 whole entry): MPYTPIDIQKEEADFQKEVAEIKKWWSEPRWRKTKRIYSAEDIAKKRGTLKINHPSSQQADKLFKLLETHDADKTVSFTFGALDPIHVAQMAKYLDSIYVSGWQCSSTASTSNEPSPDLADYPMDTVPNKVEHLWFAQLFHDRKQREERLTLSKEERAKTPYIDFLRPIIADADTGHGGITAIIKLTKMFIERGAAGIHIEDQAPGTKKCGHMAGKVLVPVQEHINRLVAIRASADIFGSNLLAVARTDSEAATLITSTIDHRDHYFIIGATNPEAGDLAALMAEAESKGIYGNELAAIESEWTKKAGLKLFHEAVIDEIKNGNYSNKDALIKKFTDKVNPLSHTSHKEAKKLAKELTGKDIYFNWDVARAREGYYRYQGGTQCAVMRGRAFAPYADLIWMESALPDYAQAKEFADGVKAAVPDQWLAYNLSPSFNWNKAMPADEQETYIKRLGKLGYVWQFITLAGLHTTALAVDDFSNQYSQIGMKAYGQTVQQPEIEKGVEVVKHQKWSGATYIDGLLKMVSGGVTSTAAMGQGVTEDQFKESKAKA

By MIC is commonly meant the least concentration at which growth counts as inhibited. A lower MIC goes with a more susceptible organism. The IC50 is the concentration at which inhibition is half-maximal. `CC(C)[C@@H]1OC(=O)/C=C/C=C/C=C/C=C/C=C/C=C/C[C@@H](O)C[C@H](O)C[C@H](O)C[C@H](O)C[C@@H](O)C[C@H](O)C[C@@H](O)C[C@@H](O)C[C@@H](O)CC[C@@H]1C` [BAHAMAOLIDE A]: the MIC in the assay with Candida albicans [1] is 12.5 µg/mL (≈ 17.6 µM); in the assay with Candida albicans [3] it was 25 µg/mL (≈ 35.3 µM); with Candida albicans [4] it was 25 µg/mL (≈ 35.3 µM); with Candida albicans [6], 3.12 µg/mL (≈ 4.4 µM); against Candida albicans [8] it was 3.12 µg/mL (≈ 4.4 µM); against Candida albicans [12] it was 1.56 µg/mL (≈ 2.2 µM). Further, the MIC is 25 µg/mL (≈ 35.3 µM) in the assay with Candida albicans [13], 3.12 µg/mL (≈ 4.4 µM) in the assay on Candida albicans [14], 3.12 µg/mL (≈ 4.4 µM) in the assay on Candida albicans [15] and 25 µg/mL (≈ 35.3 µM) in the assay with Candida albicans [16]. The “growth inhibition (GI)” value in the assay with Candida albicans [2] and in the assay on Candida albicans [9] was “Active” throughout. Also, the inhibition result with Candida albicans [5] and in the assay with Candida albicans [11] was “Active” throughout. Besides, in the assay with Candida albicans [7], the “growth inhibition (GI)” value is “inactive”. Also, the “fold change (FC)” value in the assay on Candida albicans [10] worked out at 5. This compound also had a half-inhibitory concentration (IC50) against Isocitrate lyase of 11.8 µM.

Turning to `C[C@@H]1[C@H](O)[C@@H](C)/C=C/C=C/C=C/C=C/C=C/C=C/C=C/[C@H](O[C@@H]2O[C@H](C)[C@@H](O)[C@H](N)[C@@H]2O)C[C@@H]2O[C@](O)(C[C@@H](O)C[C@@H](O)[C@H](O)CC[C@@H](O)C[C@@H](O)CC(=O)O[C@H]1C)C[C@H](O)[C@H]2C(=O)O` [AMPHOTERICIN B], the minimum inhibitory concentration (MIC) in the assay with Candida albicans [1] amounted to 1.56 µg/mL (≈ 1.69 µM); in the assay with Candida albicans [3] it was 3.12 µg/mL (≈ 3.38 µM); in the assay with Candida albicans [4] it was 1.56 µg/mL (≈ 1.69 µM); against Candida albicans [6] it was 1.56 µg/mL (≈ 1.69 µM); in the assay with Candida albicans [8] it was 0.78 µg/mL (≈ 0.844 µM); with Candida albicans [12], 0.78 µg/mL (≈ 0.844 µM). Further, the minimum inhibitory concentration (MIC) in the assay on Candida albicans [13] amounted to 1.56 µg/mL (≈ 1.69 µM); against Candida albicans [14], 0.78 µg/mL (≈ 0.844 µM); against Candida albicans [15], 0.39 µg/mL (≈ 0.422 µM); against Candida albicans [16] it was 1.56 µg/mL (≈ 1.69 µM).

For the compound `O=C(O)CC[N+](=O)[O-]`, the IC50 against Isocitrate lyase was found to be 17.3 µM.

These data come from ChEMBL document CHEMBL3352126, “Bahamaolide A from the marine-derived Streptomyces sp. CNQ343 inhibits isocitrate lyase in Candida albicans” (Bioorg Med Chem Lett, 2014).
